Test systems include CAKI-1; UO-31; SK-MEL-28; SN12C; MDA-MB-231; HOP-92; MDA-N; NCI/ADR-RES; OVCAR-5; HCC 2998; SF-539; RXF 393; SK-OV-3; TK-10; SW-620; PC-3; KM12; NCI-H522; MCF7; ACHN.
Holding throughout (assay): DTP human tumour cell line panel, 48 h

By GI50 is commonly meant the concentration at which growth is held to half of that of the control.

Molecules are shown by their SMILES.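 All cell lines were grown in 96-well plates and treated with compound for 48 hours. GI50 = concentration required for 50% inhibition of growth.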 Calls of active or inactive are those of the source. Rule as the data show it: active = GI50 up to about 1.1 µM and inactive = higher.

In the case of `CC1=C/C(=N/N2C(=O)/C(=C/c3ccc(Cl)cc3)N=C2c2ccccc2)CC(C)(C)C1`, the GI50 with CAKI-1 was > 100 µM (inactive); in the assay on UO-31 it was > 100 µM (inactive); with SK-MEL-28, > 100 µM (inactive); with SN12C, > 100 µM (inactive); in the assay on MDA-MB-231 it was > 100 µM (inactive); in the assay on HOP-92 it was 94.8 µM (inactive). For the same molecule, the GI50 in the assay on MDA-N was 67.6 µM (inactive); in the assay with NCI/ADR-RES, 60.7 µM (inactive); in the assay with OVCAR-5, > 100 µM (inactive); in the assay with HCC 2998, > 100 µM (inactive); in the assay with SF-539 it was 47.1 µM (inactive); with RXF 393 it was 91.6 µM (inactive). Moreover, the GI50 with SK-OV-3 was > 100 µM (inactive); with TK-10 it was 89.5 µM (inactive); in the assay with SW-620, 76.2 µM (inactive); in the assay on PC-3 it was 61.2 µM (inactive); in the assay on KM12, 51.1 µM (inactive); in the assay on NCI-H522, 30 µM (inactive). Also, the figures for the GI50 in the assay with MCF7 and in the assay with ACHN were 49.8 µM (inactive) and > 100 µM (inactive), respectively.
In the case of `CC1=NNC(=S)NCCCN2CCN(CCCNC(=S)NN=C(C)C=NNC(=S)NCCCN3CCN(CCCNC(=S)NN=C1)CC3)CC2`, the GI50 in the assay with CAKI-1, in the assay on UO-31, with SK-MEL-28, in the assay on SN12C, in the assay with MDA-MB-231 and with HOP-92 was > 100 µM (inactive) in each case. The GI50 with MDA-N, with NCI/ADR-RES, with OVCAR-5, in the assay with HCC 2998, in the assay with SF-539 and in the assay on RXF 393 was > 100 µM (inactive) throughout. Also, the GI50 with SK-OV-3, with TK-10, with SW-620, with PC-3, in the assay on KM12 and with NCI-H522 was > 100 µM (inactive) each time. The GI50 in the assay with MCF7 and with ACHN was > 100 µM (inactive) each time.
As to `O=C(Nc1nc2ccccc2s1)c1cc([N+](=O)[O-])ccc1Cl`, the GI50 in the assay with CAKI-1 is 37.6 µM (inactive); in the assay on UO-31, 6.76 µM (inactive); in the assay with SK-MEL-28, > 32.1 µM (inactive); in the assay on SN12C it was 9.59 µM (inactive); with MDA-MB-231 it was > 55.1 µM (inactive); with HOP-92, 5.89 µM (inactive). Further, the GI50 is 3.58 µM (inactive) with MDA-N; 6.89 µM (inactive) in the assay with NCI/ADR-RES; 23 µM (inactive) in the assay on OVCAR-5; 12.6 µM (inactive) in the assay on HCC 2998; 4.73 µM (inactive) in the assay on SF-539; 2.65 µM (inactive) in the assay on RXF 393. For the same molecule, the GI50 in the assay with SK-OV-3 is 16 µM (inactive); in the assay with TK-10, 66.4 µM (inactive); in the assay on SW-620, 6.14 µM (inactive); in the assay on PC-3, 7.24 µM (inactive); in the assay on KM12, 3.29 µM (inactive); in the assay on NCI-H522 it was 3.4 µM (inactive). The GI50 with MCF7 is 0.91 µM (active); with ACHN it was 17 µM (inactive).
Regarding `CC1(C)OCC(C2OC3OC(C)(C)OC3C2N)O1` (stereo not given), the GI50 in the assay with CAKI-1, with UO-31, in the assay on SK-MEL-28, with SN12C, in the assay with MDA-MB-231 and with HOP-92 was > 100 µM (inactive) each time. The GI50 in the assay with MDA-N, in the assay with NCI/ADR-RES, with OVCAR-5, with HCC 2998, in the assay on SF-539 and in the assay with RXF 393 was > 100 µM (inactive) throughout. Also, the GI50 with SK-OV-3, with TK-10, in the assay with SW-620, in the assay with PC-3, in the assay with KM12 and in the assay with NCI-H522 was > 100 µM (inactive) throughout. In addition, the GI50 with MCF7 and with ACHN was > 100 µM (inactive) each time.
As to `O=C1Nc2ccccc2C1=Nc1ccc(S(=O)(=O)Nc2nccs2)cc1`, the GI50 with CAKI-1, in the assay on UO-31, in the assay on SK-MEL-28, with SN12C, with MDA-MB-231 and in the assay with HOP-92 was > 100 µM (inactive) each time. In addition, the GI50 with MDA-N is > 100 µM (inactive); in the assay with NCI/ADR-RES, > 100 µM (inactive); with OVCAR-5, > 100 µM (inactive); in the assay with HCC 2998 it was > 100 µM (inactive); with SF-539, 48.3 µM (inactive); in the assay on RXF 393 it was > 100 µM (inactive). The GI50 in the assay on SK-OV-3, in the assay with TK-10, in the assay with SW-620, in the assay on PC-3, in the assay with KM12 and in the assay with NCI-H522 was > 100 µM (inactive) each time. In addition, the GI50 with MCF7 and in the assay with ACHN was > 100 µM (inactive) throughout.
Consider `CC1=C(O)C(=O)c2ccccc2C1=O`, for which the GI50 with CAKI-1 is > 100 µM (inactive); in the assay on UO-31, 21.5 µM (inactive); with SK-MEL-28 it was > 100 µM (inactive); in the assay with SN12C, > 100 µM (inactive); with MDA-MB-231, > 100 µM (inactive); in the assay on HOP-92 it was > 100 µM (inactive). Also, the GI50 in the assay on MDA-N was 46.7 µM (inactive); with NCI/ADR-RES, > 100 µM (inactive); with OVCAR-5 it was > 100 µM (inactive); with HCC 2998 it was > 100 µM (inactive); in the assay with SF-539, > 100 µM (inactive); in the assay on RXF 393, 34.8 µM (inactive). Further, the GI50 with SK-OV-3 was > 100 µM (inactive); in the assay on TK-10, 24.3 µM (inactive); with SW-620 it was 84.3 µM (inactive); in the assay on PC-3, 82.6 µM (inactive); with KM12 it was 23 µM (inactive); with NCI-H522 it was 47.9 µM (inactive). The GI50 in the assay on MCF7 is 67.6 µM (inactive); in the assay with ACHN, 58.7 µM (inactive).
For `O=[N+]([O-])c1c(F)c(F)c2c(c1F)N(CCCCCl)c1ccccc1S2`, the GI50 with CAKI-1 was 6.98 µM (inactive); in the assay on UO-31, 16.9 µM (inactive); in the assay with SK-MEL-28, 5.9 µM (inactive); with SN12C, 7.5 µM (inactive); with MDA-MB-231, 7.89 µM (inactive); in the assay on HOP-92 it was 16.4 µM (inactive). For the same molecule, the GI50 was 15 µM (inactive) in the assay with MDA-N; 17.5 µM (inactive) with NCI/ADR-RES; 18.8 µM (inactive) with OVCAR-5; 2.86 µM (inactive) with HCC 2998; 17.2 µM (inactive) in the assay on SF-539; 13.8 µM (inactive) with RXF 393. The GI50 with SK-OV-3 was 19.7 µM (inactive); in the assay with TK-10, 16.9 µM (inactive); in the assay with SW-620, 4.05 µM (inactive); with PC-3 it was 6.05 µM (inactive); in the assay with KM12 it was 10.5 µM (inactive); with NCI-H522, 4.9 µM (inactive). The GI50 is 3.61 µM (inactive) in the assay on MCF7 and 16.5 µM (inactive) with ACHN.

The record behind these values is ChEMBL document CHEMBL1201862, “PubChem BioAssay data set” (2004).
